Data from US8048924B2, “Methods and compositions employing 4-aminophenylacetic acid compounds” (Biocon Limited, priority 2001, dated 2011).
Values belong to the molecule of their own block, whether it stands above or below them.

Legend:
[1] = test system: Clostridium difficile toxin A-induced colitis; assay: Toxin A-induced colitis, chronic oral administration in drinking water for 5 days; type: in vivo, Sprague-Dawley rats
Description: Eighteen adult male Sprague-Dawley rats weighing 175-222 grams were divided into 3 groups each consisting of 6 animals: • 4-APAA (AA-002) 100 mg/kg orally+Toxin A (10 μg) injected into the lumen of the colon • Vehicle (DW) orally+Toxin A (10 μg) injected into the lumen of the colon • Vehicle (DW) orally
Following 5 days of 4-APAA administration in drinking water, both ketamine (67 mg/kg) and xylazine (33 mg/kg) were administered, an isolated colonic segment was surgically created, and 10 μg of Clostridium difficile toxin A was injected into the lumen of the colon. After 3 hours, the rats were euthanized and colonic inflammation was assessed by quantitating luminal fluid accumulation and myeloperoxidase (MPO) content in the colon tissue. In addition, histological evaluation of the treated colon segments was completed.
Drug Administration. In studies using chronic administration, sulfasalazine, APAZA™, and 4-APAA were administered in the drinking water at doses ranging from 0.1-100 mg/kg·d for 5 days. Sulfasalazine and APAZA™ were initially dissolved in 0.1 N NaOH at 30 times the desired final concentration and then the pH was adjusted to 8.5 with 1 N HCl and the solution was diluted 30-fold with distilled water. 4-APAA was dissolved in water. On the fifth day, the rats were fasted overnight (with access to their drinking water±sulfasalazine, APAZA™, or 4-APAA ad lib), anesthetized, and isolated colonic segments were surgically created as described below. In studies using acute administration, the rats were pretreated by injection of 4-APAA at doses of 10 or 100 μg in 200 μl of PBS (pH 7.4) into the lumen of the colonic segment using a 27 ga syringe needle. Toxin A (10 μg) in 200 μl of PBS (pH 7.4) was tested alone or injected into the lumen of the colonic segment 30 minutes after 4-APAA using a 27 ga syringe needle.
Surgery. Isolated colonic segments were created in male Sprague-Dawley rats (150-175 g) as described previously for isolated ileal segments (see, Gastroenterol. 111: 1272-1280 (1996) and Proc. Natl. Acad. Sci. USA 91: 947-951 (1994). Rats fasted overnight with free access to drinking water were anesthetized by intramuscular injection of 67 mg/kg ketamine:33 mg/kg xylazine. A midline abdominal incision was made and colonic segments 5 cm in length were created by ligation with 4-0 silk sutures, taking care not to disturb the vascular supply. Toxin A (10 μg) in 400 μl of PBS (pH 7.4) was injected into the lumen of the colonic segment using a 27 ga syringe needle. Control rats were prepared similarly and their colonic segments were injected with the vehicles. The midline incision was then closed with a running suture, and the rats were placed on a heating pad at 37° C. for 3 hours. After 3 hours, the rats were euthanized and samples of the treated colonic segments were taken for analysis in vitro.
Histopathology. The severity of colonic histological damage was assessed using formalin-fixed, paraffin-embedded, H&E-stained sections.
Luminal Fluid Accumulation. Luminal fluid accumulation was measured gravimetrically. After 3 hours of treatment, the isolated colonic segments were removed, weighed, and their lengths were measured. Luminal fluid accumulation is expressed as mg wet weight per cm length.
Myeloperoxidase Activity. Myeloperoxidase (MPO) activity was measured as described previously (see, J. Invest. Dermatol. 78: 206-209 (1982)). Briefly, pieces of control and treated colonic segments were homogenized in 0.5% hexadecyltrimethylammonium bromide in 50 mM KH2PO4 (pH 6), freeze/thawed three times, centrifuged at 4° C. for 2 minutes, and then the absorbance of each supernatant was read at 460 nm at 0, 30, and 60 seconds after the addition of 2.9 ml of o-dianisidine dihydrochloride to 0.1 ml supernatant. The maximal change in absorbance per minute was used to calculate the units of MPO activity based on the molar absorbency index of oxidized o-dianisidine of 1.13×10^4 M^−1 cm^−1. […]

[2] = Single oral dose plasma pharmacokinetics and elimination of APAZA and metabolites in mice; type: in vivo, male CD-1 mice; settings: single oral dose of APAZA, male CD-1 mice
Description: Initial single dose pharmacokinetic studies with the APAZA™ compound have been conducted in dogs and mice. A study was completed in order to determine the plasma pharmacokinetics and elimination of the APAZA™ compound and its metabolites (5-ASA, 4-APAA, 5-aceASA and 4-aceAPAA) following single oral dose administration to male CD-1 mice. […] When normalized to molar values, the Cmax values for all the APAZA™ metabolites were less than APAZA™; the values ranged from 2.68 to 13.8 μM. However, the normalized APAZA™ AUC∞ value was not greater than all the other metabolites; these values ranged from […]. […] The Tmax values for APAZA™ and its metabolites were 1 hour and 4 hours, respectively.

DSS induced colitis = assay: Dextran sulfate sodium (DSS) colitis in the rat; type: in vivo, Sprague-Dawley rats; settings: oral gavage bid
Description: The effectiveness of APAZA™ and sulfasalazine in ameliorating intestinal inflammation in a model of dextran sulfate sodium (DSS) induced colitis in Sprague-Dawley rats was determined. Thirty-six male Sprague-Dawley rats that were 7-8 weeks old and weighed 240-260 g were studied. […] After completion of the treatment period, rats were euthanized and the efficacy of the test drugs in inhibiting colitis was assessed by the following: • Disease Activity Index Scoring: • Body weight • Colon wet weight: body weight ratios • Colonic Myeloperoxidase (MPO) activity • Histopathological changes of the colon

DNBS colitis = assay: Study AA-PH-003: oral and rectal APAZA and sulfasalazine in DNBS colitis; type: in vivo, male Lewis rats; parameters: Average Diarrhea Score Day 3: scale not given here; settings: for Colonic Inflammation Scores: scale 0-2
Description: Study AA-PH-003 was designed to evaluate the anti-inflammatory efficacy of oral and rectal doses of APAZATM and sulfasalazine in the DNBS colitis model in rats. […] Thirty-five adult male Lewis rats (body weight 200-250 g) were studied. […] Animal body weights and incidence of diarrhea were recorded daily. […] Animals in the DNBS groups and the parallel deionized water group were sacrificed on day 5. Laparotomies and colectomies were performed and animals were scored for the presence and severity of intestinal adhesions, strictures, inflammation, and ulceration. Colon: body weight ratios were determined and colon histopathology was performed.

[3] = 100 mg/kg·day in drinking water, 5 days
[4] = 100 mg/kg·day in drinking water, 5 days, toxin A 10 μg
[5] = orally + 30 mg DNBS, APAZA 200 mg/kg, sulfasalazine 265.6 mg/kg
[6] = rectally + 30 mg DNBS, APAZA 200 mg/kg, sulfasalazine 265.6 mg/kg
[7] = 1 mg/kg·day in drinking water, 5 days
[8] = 10 mg/kg·day in drinking water, 5 days

SMILES: O=C(O)Cc1ccc(/N=N/c2ccc(CC(=O)O)cc2)cc1 [4-APAA dimer, [4-(4-Carboxymethyl-phenylazo)-phenyl]-acetic acid]
- toxin A-induced MPO activity, significance of inhibition [1, 3]: significantly inhibited
- toxin A-induced luminal fluid accumulation, significance of inhibition [1, 3]: did not inhibit
- toxin A-induced structural damage of the colon (H&E) [1, 3]: did not inhibit
- percent inhibition of toxin A-induced MPO activity [1, 4]: 60±9%
- percent inhibition of toxin A-induced luminal fluid accumulation [1, 4]: 21±8%

- plasma concentration at 24 hours [2]: below the limit of detection
SMILES: CC(=O)Nc1ccc(CC(=O)O)cc1 [4-aceAPAA, (4-acetylamino-phenyl)-acetic acid, reference compound]

- t1/2 ([2]; plasma): 11.27 h
- plasma concentration at 24 hours [2]: below the limit of detection
SMILES: CC(=O)Nc1ccc(O)c(C(=O)O)c1 [acetylated 5-ASA]

SMILES: O=C(O)c1cc(/N=N/c2ccc(S(=O)(=O)Nc3ccccn3)cc2)ccc1O [sulfasalazine, reference compound]
- body weights, rats drinking DW versus DSS (DSS induced colitis; days 10 and 11): statistically significant differences
- colon wet weight: body weight ratio, DSS versus DW (DSS induced colitis; APAZA 100 mg/kg, sulfasalazine 133 mg/kg): increased
- Disease Activity Index (DAI) score (DSS induced colitis; rats drinking 5% DSS, APAZA 100 mg/kg, sulfasalazine 133 mg/kg): significantly greater
- colonic MPO activity (DSS induced colitis; rats receiving DSS): significant increase
- histological changes of the colon (DSS induced colitis; rats receiving DSS): severe colitis
- reduction relative to control in net colon: body weight (% BW) ratio (DNBS colitis; oral groups): 38.4%
- Average Diarrhea Score Day 3 (DNBS colitis; [5]): 2.4
- Colon Histopathology (# severe lesions) (DNBS colitis; [5]): 8
- Length of Colonic Inflammation (cm) (DNBS colitis; [5]): 2.3 cm
- Mean Body Weight (DNBS colitis; [5]): 215.4 g
- Mean Colon Length (cm) (DNBS colitis; [5]): 12.9 cm
- Net Colon: Body Weight Ratio (DNBS colitis; [5]): 0.1862
- Colonic Inflammation Scores (DNBS colitis; [5]): 1.4
- Average Diarrhea Score Day 3 (DNBS colitis; [6]): 2
- Length of Colonic Inflammation (cm) (DNBS colitis; [6]): 1.8 cm
- Mean Body Weight (DNBS colitis; [6]): 217.0 g
- Mean Colon Length (cm) (DNBS colitis; [6]): 12.8 cm
- Net Colon: Body Weight Ratio (DNBS colitis; [6]): 0.179
- Colonic Inflammation Scores (DNBS colitis; [6]): 1
- toxin A-induced MPO activity, significance of inhibition [1, 7]: did not significantly inhibit
- toxin A-induced luminal fluid accumulation, significance of inhibition [1, 7]: did not significantly inhibit
- toxin A-induced structural damage of the colon (H&E) [1, 7]: little effect
- toxin A-induced luminal fluid accumulation, significance of inhibition [1, 8]: significantly inhibited
- toxin A-induced structural damage of the colon (H&E) [1, 8]: little effect
- toxin A-induced MPO activity, significance of inhibition [1, 3]: significantly inhibited
- toxin A-induced luminal fluid accumulation, significance of inhibition [1, 3]: significantly inhibited
- toxin A-induced structural damage of the colon (H&E) [1, 3]: did inhibit
- doses that significantly inhibited toxin A-induced colitis ([1]; chronically for 5 days in drinking water, doses tested 1-100): 100 mg/kg·day
